The structures appear in SMILES notation.

From US7576222B2, “Alkynyl-containing tryptophan derivative inhibitors of TACE/matrix metalloproteinase” (priority 2004, dated 2009) come the findings set out here.

T1 sequence (P78536 223-474 limits assumed): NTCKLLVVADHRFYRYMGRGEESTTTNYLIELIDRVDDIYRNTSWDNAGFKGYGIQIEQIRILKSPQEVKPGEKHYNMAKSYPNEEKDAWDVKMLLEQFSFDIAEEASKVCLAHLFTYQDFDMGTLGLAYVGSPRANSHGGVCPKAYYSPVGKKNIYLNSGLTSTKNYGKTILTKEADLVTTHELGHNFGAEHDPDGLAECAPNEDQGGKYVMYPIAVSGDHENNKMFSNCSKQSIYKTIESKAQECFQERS

The first experiment has as its target T1, catalytic domain of the recombinant TACE protein (Homo sapiens, UniProt P78536).
T1 construct: The catalytic domain of the recombinant TACE protein was expressed and purified; made in house
As to the kind of experiment: TACE FRET assay using TACE cat. The experiment is classed as biochemical. As to conditions: TACE FRET assay, Conc. 1 μM. How it is done: TACE FRET Assay Using TACE Cat
“K” is the IC50. Generally, “n” and “B” are floated, noting that n (Hill slope) should be close to 1 and B (background offset) to 0.
Pro-TNF-α substrate peptide Abz-[…]-Dpa (AnaSpec, San Jose, Calif., WARC-1) was prepared as a 2 mM stock solution in the TACE assay buffer (50 mM Tris-HCl, pH 7.4, 25 mM NaCl, 4% Glycerol, 0.005% Brij 35). The catalytic domain of the recombinant TACE protein was expressed and purified. The TACE protein (1 ug/ml) was pretreated with the inhibitors at various concentrations for 10 min. at room temperature. The reaction was initiated by the addition of the substrate peptide. […] The initial rate (slope) of the reaction was determined using a fluorescence plate reader (Molecular Devices, Spectra Max Gemini XS).
As to `CC#CCOc1ccc(S(=O)(=O)N[C@@H](Cc2cn(Cc3ccccc3OC)c3ccc(C(=O)O)cc23)C(=O)O)cc1` [Example 107], the “TACE Inhibition (%)” value came to 7.34%.

The experiment is the same for the next values; noted with them: read-out: TACE Inhibition (%).
As to `CC#CCOc1ccc(S(=O)(=O)N[C@@H](Cc2c(C)n(Cc3ccc4c(c3)OCO4)c3ccc(Cl)cc23)C(=O)O)cc1` [Example 100, 1-(1,3-benzodioxol-5-ylmethyl)-N-{[4-(but-2-ynyloxy)phenyl]sulfonyl}-5-chloro-2-methyltryptophan], the inhibition (as a rule, the change of the read-out against control, counted positive when it falls) at 1 µM stood at 55.6%.

In the case of `CC#CCOc1ccc(S(=O)(=O)N[C@@H](Cc2c(C)n(CC(C)C)c3ccc(Cl)cc23)C(=O)O)cc1` [Example 101, N-{[4-(but-2-ynyloxy)phenyl]sulfonyl}-5-chloro-1-isobutyl-2-methyltryptophan], the inhibition at 1 µM amounted to 68.5%.

In the case of `CC#CCOc1ccc(S(=O)(=O)N[C@@H](Cc2c(C)n(CC3CCCCC3)c3ccc(Cl)cc23)C(=O)O)cc1` [Example 102, N-{[4-(but-2-ynyloxy)phenyl]sulfonyl}-5-chloro-1-(cyclohexylmethyl)-2-methyltryptophan], the inhibition at 1 µM stood at 56.9%.

As to `CC#CCOc1ccc(S(=O)(=O)N[C@@H](Cc2cn(Cc3ccccc3)c3ccc(C(=O)O)cc23)C(=O)O)cc1` [Example 103, 1-benzyl-N-{[4-(but-2-ynyloxy)phenyl]sulfonyl}-5-carboxytryptophan], the inhibition at 1 µM turned out to be 6.16%.

As for `CC#CCOc1ccc(S(=O)(=O)N[C@@H](Cc2cn(Cc3ccccc3C)c3ccc(C(=O)O)cc23)C(=O)O)cc1` [Example 104, N-{[4-(but-2-ynyloxy)phenyl]sulfonyl}-5-carboxy-1-(2-methylbenzyl)tryptophan], the inhibition at 1 µM turned out to be 5.79%.

Take `CC#CCOc1ccc(S(=O)(=O)N[C@@H](Cc2cn(Cc3cccc(C)c3)c3ccc(C(=O)O)cc23)C(=O)O)cc1` [Example 105, N-{[4-(but-2-ynyloxy)phenyl]sulfonyl}-5-carboxy-1-(3-methylbenzyl)tryptophan]: the inhibition at 1 µM turned out to be 11%.

For the molecule `CC#CCOc1ccc(S(=O)(=O)N[C@@H](Cc2cn(Cc3ccc(C)cc3)c3ccc(C(=O)O)cc23)C(=O)O)cc1` [Example 106, N-{[4-(but-2-ynyloxy)phenyl]sulfonyl}-5-carboxy-1-(4-methylbenzyl)tryptophan], the inhibition at 1 µM stood at 5.53%.

On to `CC#CCOc1ccc(S(=O)(=O)N[C@@H](Cc2cn(Cc3cccc(OC)c3)c3ccc(C(=O)O)cc23)C(=O)O)cc1` [Example 108, N-{[4-(but-2-ynyloxy)phenyl]sulfonyl}-5-carboxy-1-(3-methoxybenzyl)tryptophan], for which the inhibition at 1 µM is 9.93%.

Turning to `CC#CCOc1ccc(S(=O)(=O)N[C@@H](Cc2cn(Cc3ccc(OC)cc3)c3ccc(C(=O)O)cc23)C(=O)O)cc1` [Example 109, N-{[4-(but-2-ynyloxy)phenyl]sulfonyl}-5-carboxy-1-(4-methoxybenzyl)tryptophan], the inhibition at 1 µM came out at 7.93%.

For the molecule `CC#CCOc1ccc(S(=O)(=O)N[C@@H](Cc2cn(Cc3cc(OC)cc(OC)c3)c3ccc(C(=O)O)cc23)C(=O)O)cc1` [Example 110, N-{[4-(but-2-ynyloxy)phenyl]sulfonyl}-5-carboxy-1-(3,5-dimethoxybenzyl)tryptophan], the inhibition at 1 µM came out at 8.02%.

In the case of `CC#CCOc1ccc(S(=O)(=O)N[C@@H](Cc2cn(Cc3ccccc3C(F)(F)F)c3ccc(C(=O)O)cc23)C(=O)O)cc1` [Example 111, N-{[4-(but-2-ynyloxy)phenyl]sulfonyl}-5-carboxy-1-[2(trifluoromethyl)benzyl]tryptophan], the inhibition at 1 µM came to 10.7%.

Turning to `CC#CCOc1ccc(S(=O)(=O)N[C@@H](Cc2cn(Cc3cccc(C(F)(F)F)c3)c3ccc(C(=O)O)cc23)C(=O)O)cc1` [Example 112, N-{[4-(but-2-ynyloxy)phenyl]sulfonyl}-5-carboxy-1-[3-(trifluoromethyl)benzyl]tryptophan], the inhibition at 1 µM stood at 5.51%.

In the case of `CC#CCOc1ccc(S(=O)(=O)N[C@@H](Cc2cn(Cc3ccc(C(F)(F)F)cc3)c3ccc(C(=O)O)cc23)C(=O)O)cc1` [Example 113, N-{[4-(but-2-ynyloxy)phenyl]sulfonyl}-5-carboxy-1-[4-(trifluoromethyl)benzyl]tryptophan], the inhibition at 1 µM is -2.04%.

As to `CC#CCOc1ccc(S(=O)(=O)N[C@@H](Cc2cn(Cc3ccc(OC(F)(F)F)cc3)c3ccc(C(=O)O)cc23)C(=O)O)cc1` [Example 114, N-{[4-(but-2-ynyloxy)phenyl]sulfonyl}-5-carboxy-1-[4-(trifluoromethoxy)benzyl]tryptophan], the inhibition at 1 µM is 10.3%.

On to `CC#CCOc1ccc(S(=O)(=O)N[C@@H](Cc2cn(Cc3ccccc3F)c3ccc(C(=O)O)cc23)C(=O)O)cc1` [Example 115, N-{[4-(but-2-ynyloxy)phenyl]sulfonyl}-5-carboxy-1-(2-fluorobenzyl)tryptophan], for which the inhibition at 1 µM turned out to be 4.29%.

As to `CC#CCOc1ccc(S(=O)(=O)N[C@@H](Cc2cn(Cc3cccc(F)c3)c3ccc(C(=O)O)cc23)C(=O)O)cc1` [Example 116, N-{[4-(but-2-ynyloxy)phenyl]sulfonyl}-5-carboxy-1-(3-fluorobenzyl)tryptophan], the inhibition at 1 µM was found to be 9.72%.

As for `CC#CCOc1ccc(S(=O)(=O)N[C@@H](Cc2cn(Cc3ccc(F)cc3)c3ccc(C(=O)O)cc23)C(=O)O)cc1` [Example 117, N-{[4-(but-2-ynyloxy)phenyl]sulfonyl}-5-carboxy-1-(4-fluorobenzyl)tryptophan], the inhibition at 1 µM worked out at 10.9%.

With `CC#CCOc1ccc(S(=O)(=O)N[C@@H](Cc2cn(Cc3cc(F)cc(F)c3)c3ccc(C(=O)O)cc23)C(=O)O)cc1` [Example 118, N-{[4-(but-2-ynyloxy)phenyl]sulfonyl}-5-carboxy-1-(3,5-difluorobenzyl)tryptophan], the inhibition at 1 µM stood at 5.98%.

As for `CC#CCOc1ccc(S(=O)(=O)N[C@@H](Cc2cn(Cc3ccc(Cl)cc3)c3ccc(C(=O)O)cc23)C(=O)O)cc1` [Example 119, N-{[4-(but-2-ynyloxy)phenyl]sulfonyl}-5-carboxy-1-(4-chlorobenzyl)tryptophan], the inhibition at 1 µM came to 11.7%.

In the case of `CC#CCOc1ccc(S(=O)(=O)N[C@@H](Cc2cn(Cc3ccc(C(C)C)cc3)c3ccc(C(=O)O)cc23)C(=O)O)cc1` [Example 120, N-{[4-(but-2-ynyloxy)phenyl]sulfonyl}-5-carboxy-1-(4-isopropylbenzyl)tryptophan], the inhibition at 1 µM is 10%.

Turning to `CC#CCOc1ccc(S(=O)(=O)N[C@@H](Cc2cn(Cc3ccccc3C#N)c3ccc(C(=O)O)cc23)C(=O)O)cc1` [Example 121, N-{[4-(but-2-ynyloxy)phenyl]sulfonyl}-5-carboxy-1-(2-cyanobenzyl)tryptophan], the inhibition at 1 µM stood at 14.8%.

Take `CC#CCOc1ccc(S(=O)(=O)N[C@@H](Cc2cn(Cc3cccc(C#N)c3)c3ccc(C(=O)O)cc23)C(=O)O)cc1` [Example 122, N-{[4-(but-2-ynyloxy)phenyl]sulfonyl}-5-carboxy-1-(3-cyanobenzyl)tryptophan]: the inhibition at 1 µM was -0.34%.

`CC#CCOc1ccc(S(=O)(=O)N[C@@H](Cc2cn(Cc3ccc(C#N)cc3)c3ccc(C(=O)O)cc23)C(=O)O)cc1` [Example 123, N-{[4-(but-2-ynyloxy)phenyl]sulfonyl}-5-carboxy-1-(4-cyanobenzyl)tryptophan]: the inhibition at 1 µM was -2.56%.

As for `CC#CCOc1ccc(S(=O)(=O)N[C@@H](Cc2cn(Cc3ccc4c(c3)OCO4)c3ccc(C(=O)O)cc23)C(=O)O)cc1` [Example 124, 1-(1,3-benzodioxol-5-ylmethyl)-N-{[4-(but-2-ynyloxy)phenyl]sulfonyl}-5-carboxytryptophan], the inhibition at 1 µM came to 10.2%.

On to `CC#CCOc1ccc(S(=O)(=O)N[C@@H](Cc2cn(Cc3cccnc3)c3ccc(C(=O)O)cc23)C(=O)O)cc1` [Example 125, N-{[4-(but-2-ynyloxy)phenyl]sulfonyl}-5-carboxy-1-(pyridin-3-ylmethyl)tryptophan], for which the inhibition at 1 µM was found to be 6.23%.

Consider `CC#CCOc1ccc(S(=O)(=O)N[C@@H](Cc2cn(Cc3ccc(C(=O)O)cc3)c3ccc(C(=O)O)cc23)C(=O)O)cc1` [Example 126, N-{[4-(but-2-ynyloxy)phenyl]sulfonyl}-5-carboxy-1-(4-carboxybenzyl)tryptophan], for which the inhibition at 1 µM was determined as 8.36%.

`CC#CCOc1ccc(S(=O)(=O)N[C@@H](Cc2cn(C)c3ccc(C(=O)O)cc23)C(=O)O)cc1` [Example 127, N-{[4-(but-2-ynyloxy)phenyl]sulfonyl}-5-carboxy-1-methyltryptophan]: the inhibition at 1 µM was -3.22%.

In the case of `CC#CCOc1ccc(S(=O)(=O)N[C@@H](Cc2cn(CC)c3ccc(C(=O)O)cc23)C(=O)O)cc1` [Example 128, N-{[4-(but-2-ynyloxy)phenyl]sulfonyl}-5-carboxy-1-ethyltryptophan], the inhibition at 1 µM was -0.6%.

Regarding `CC#CCOc1ccc(S(=O)(=O)N[C@@H](Cc2cn(CC(C)C)c3ccc(C(=O)O)cc23)C(=O)O)cc1` [Example 129, N-{[4-(but-2-ynyloxy)phenyl]sulfonyl}-5-carboxy-1-isobutyltryptophan], the inhibition at 1 µM was -4.96%.

Take `CC#CCOc1ccc(S(=O)(=O)N[C@@H](Cc2cn(CCCCC)c3ccc(C(=O)O)cc23)C(=O)O)cc1` [Example 130, N-{[4-(but-2-ynyloxy)phenyl]sulfonyl}-5-carboxy-1-pentyltryptophan]: the inhibition at 1 µM is -5.71%.

For the molecule `CC#CCOc1ccc(S(=O)(=O)N[C@@H](Cc2cn(CC3CCC3)c3ccc(C(=O)O)cc23)C(=O)O)cc1` [Example 131, N-{[4-(but-2-ynyloxy)phenyl]sulfonyl}-5-carboxy-1-(cyclobutylmethyl)tryptophan], the inhibition at 1 µM was -1.21%.
